Experiments:
[1] = target: T1, human pancreatic α-amylase (HPA) (Homo sapiens, UniProt P04746); assay: ITC; assay type: binding
T1 sequence (P04746 16-511): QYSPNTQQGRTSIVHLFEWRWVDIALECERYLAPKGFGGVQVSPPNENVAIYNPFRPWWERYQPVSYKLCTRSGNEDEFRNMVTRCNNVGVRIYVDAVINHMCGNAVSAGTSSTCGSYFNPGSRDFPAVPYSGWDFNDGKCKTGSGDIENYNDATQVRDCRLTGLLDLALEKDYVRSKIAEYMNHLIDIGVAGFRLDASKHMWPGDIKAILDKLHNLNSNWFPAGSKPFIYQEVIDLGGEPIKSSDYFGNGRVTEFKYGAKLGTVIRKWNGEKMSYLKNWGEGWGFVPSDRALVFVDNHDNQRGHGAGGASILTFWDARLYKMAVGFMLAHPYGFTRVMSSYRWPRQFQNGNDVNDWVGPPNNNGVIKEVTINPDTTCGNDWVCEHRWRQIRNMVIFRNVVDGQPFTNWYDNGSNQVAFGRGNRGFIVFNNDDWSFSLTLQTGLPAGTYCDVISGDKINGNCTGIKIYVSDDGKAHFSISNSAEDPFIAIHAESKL

[2] = target: T1, human pancreatic α-amylase (HPA); assay: hydrolysis kinetics, KM; assay type: biochemical; details: read-out: KM ^b

Kd [1] [nM]	Km [2] [µM]	Structure (SMILES)
1970	–	C=CCc1ccc(Oc2cc(CC=C)cc(OC)c2O)c(OC)c1 [DDEB, dehydrodieugenol B]
–	132 ± 6.62	OC[C@H]1O[C@H](O[C@H]2[C@H](O)[C@@H](O)[C@@H](O[C@H]3[C@H](O)[C@@H](O)[C@@H](O[C@H]4[C@H](O)[C@@H](O)[C@@H](O[C@H]5[C@H](O)[C@@H](O)C(O)O[C@@H]5CO)O[C@@H]4CO)O[C@@H]3CO)O[C@@H]2CO)[C@H](O)[C@@H](O)[C@@H]1O (some centres unmarked) [maltopentaose]
